Read-outs that look alike come from different tables or passages of the source.
Key:
PRMT5/MEP50 = PRMT5/MEP50 (Homo sapiens (Human), UniProt O14744); test: PRMT5 Biochemical Assay (PRMT5/MEP50 enzyme assay on peptide substrate, 3H-SAM Flashplate); settings: PRMT5/MEP50 4 nM, 3H-SAM 75 nM, peptide 40 nM
Source text: S-adenosylmethionine (SAM), S-adenosylhomocysteine (SAH), bicine, KCl, Tween20, dimethylsulfoxide (DMSO), bovine skin gelatin (BSG), and Tris(2-carboxyethyl)phosphine hydrochloride solution (TCEP) were purchased from Sigma-Aldrich at the highest level of purity possible. ^3H-SAM was purchase from American Radiolabeled Chemicals with a specific activity of 80 Ci/mmol. 384-well streptavidin Flashplates were purchased from PerkinElmer.
Peptide representative of human histone H4 residues 1-15 was synthesized with a C-terminal linker-affinity tag motif and a C-terminal amide cap by 21st Century Biochemicals. The peptide was high high-performance liquid chromatography (HPLC) purified to greater than 95% purity and confirmed by liquid chromatography mass spectrometry (LC-MS). The sequence was Ac-[…][K-Biot]-amide (SEQ ID NO.: 3).
Full-length human PRMT5 (NM_006109.3) transcript variant 1 clone was amplified from a fetal brain cDNA library, incorporating flanking 5′ sequence encoding a FLAG tag ([…]) (SEQ ID NO.: 4) fused directly to Ala 2 of PRMT5. Full-length human MEP50 (NM_024102) clone was amplified from a human testis cDNA library incorporating a 5′ sequence encoding a 6-histidine tag (MHHHHHH) (SEQ ID NO.: 5) fused directly to Arg 2 of MEP50. The amplified genes were sublconed into pENTR/D/TEV (Life Technologies) and subsequently transferred by Gateway™ attL x attR recombination to pDEST8 baculvirus expression vector (Life Technologies).
Recombinant baculovirus and Baculovirus-Infected Insect Cells (BIIC) were generated according to Bac-to-Bac kit instructions (Life Technologies) and Wasilko, 2006, respectively. Protein over-expression was accomplished by infecting exponentially growing Spodoptera frugiperda (SF9) cell culture at 1.2×10^6 cell/ml with a 5000 fold dilution of BIIC stock. Infections were carried out at 27° C. for 72 hours, harvested by centrifugation, and stored at −80° C. for purification.
Flag-PRMT5/6His-MeP50 was eluted with 300 mM Imidazole in the same buffer. The purity of recovered protein was 87%. Reference: Wasilko, D. J. and S. E. Lee: “TIPS: titerless infected-cells preservation and scale-up” Bioprocess J., 5 (2006), pp. 29-32.
General Procedure for PRMT5/MEP50 Enzyme Assays on Peptide Substrates.
The assays were all performed in a buffer consisting of 20 mM Bicine (pH=7.6), 1 mM TCEP, 0.005% BSG, and 0.002% Tween20, prepared on the day of use. Compounds in 100% DMSO (1 ul) were spotted into a polypropylene 384-well V-bottom plates (Greiner) using a Platemate Plus outfitted with a 384-channel head (Thermo Scientific). DMSO (1 ul) was added to Columns 11, 12, 23, 24, rows A-H for the maximum signal control and 1 ul of SAH, a known product and inhibitor of PRMT5/MEP50, was added to columns 11, 12, 23, 24, rows I-P for the minimum signal control. A cocktail (40 ul) containing the PRMT5/MEP50 enzyme and the peptide was added by Multidrop Combi (Thermo-Fisher). The compounds were allowed to incubate with PRMT5/MEP50 for 30 min at 25 degrees Celsius, then a cocktail (10 ul) containing ^3H-SAM was added to initiate the reaction (final volume=51 ul). The final concentrations of the components were as follows: PRMT5/MEP50 was 4 nM, ^3H-SAM was 75 nM, peptide was 40 nM, SAH in the minimum signal control wells was 100 uM, and the DMSO concentration was 1%. The assays were stopped by the addition of non-radioactive SAM (10 ul) to a final concentration of 600 uM, which dilutes the ^3H-SAM to a level where its incorporation into the peptide substrate is no longer detectable. 50 ul of the reaction in the 384-well polypropylene plate was then transferred to a 384-well Flashplate and the biotinylated peptides were allowed to bind to the streptavidin surface for at least 1 hour before being washed three times with 0.1% Tween20 in a Biotek ELx405 plate washer. […]

[1] = tested on: symmetric di-methyl arginine in Z-138 cells; test: Z-138 Methylation Assay (In Cell Western for symmetric di-methyl arginine and DNA content); format: cell-based; settings: 96 hours incubation, read-out: ICW EC50
Source text: [formula] Where top and bottom are the normally allowed to float, but may be fixed at 100 or 0 respectively in a 3-parameter fit. The Hill Coefficient normally allowed to float but may also be fixed at 1 in a 3-parameter fit. Y is the % inhibition and X is the compound concentration. Z-138 Methylation Assay
Z-138 suspension cells were purchased from ATCC (American Type Culture Collection, Manassas, Va.). RPMI/Glutamax medium, penicillin-streptomycin, heat inactivated fetal bovine serum, and D-PBS were purchased from Life Technologies, Grand Island, N.Y., USA. Odyssey blocking buffer, 800CW goat anti-rabbit IgG (H+L) antibody, and Licor Odyssey infrared scanner were purchased from Licor Biosciences, Lincoln, Nebr., USA. Symmetric di-methyl arginine antibody was purchased from EMD Millipore, Billerica, Mass., USA. 16% Paraformaldehyde was purchased from Electron Microscopy Sciences, Hatfield, Pa., USA.
Z-138 suspension cells were maintained in growth medium (RPMI 1640 supplemented with 10% v/v heat inactivated fetal bovine serum and 100 units/mL penicillin-streptomycin) and cultured at 37° C. under 5% CO2.
Cell Treatment, in Cell Western (ICW) for Detection of Symmetric Di-Methyl Arginine and DNA Content.
Z-138 cells were seeded in assay medium at a concentration of 50,000 cells per mL to a 384-well cell culture plate with 50 μL per well. Compound (100 nL) from 384 well source plates was added directly to 384 well cell plate. Plates were incubated at 37° C., 5% CO2 for 96 hours. After four days of incubation, 40 μL of cells from incubated plates were added to poly-D-lysine coated 384 well culture plates (BD Biosciences 356697). Plates were incubated at room temperature for 30 minutes then incubated at 37° C., 5% CO2 for 5 hours. After the incubation, 40 μL per well of 8% paraformaldehyde in PBS (16% paraformaldahyde was diluted to 8% in PBS) was added to each plate and incubated for 30 minutes. Plates were transferred to a Biotek 405 plate washer and washed 5 times with 100 μL per well of wash buffer (IX PBS with 0.1% Triton X-100 (v/v)). Next 30 μL per well of Odyssey blocking buffer were added to each plate and incubated 1 hour at room temperature. Blocking buffer was removed and 20 μL per well of primary antibody was added (symmetric di-methyl arginine diluted 1:100 in Odyssey buffer with 0.1% Tween 20 (v/v)) and plates were incubated overnight (16 hours) at 4° C. Plates were washed 5 times with 100 μL per well of wash buffer. Next 20 μL per well of secondary antibody was added (1:200 800CW goat anti-rabbit IgG (H+L) antibody, 1:1000 DRAQ5 (Biostatus limited) in Odyssey buffer with 0.1% Tween 20 (v/v)) and incubated for 1 hour at room temperature. The plates were washed 5 times with 100 μL per well wash buffer then 1 time with 100 μL per well of water. Plates were allowed to dry at room temperature then imaged on the Licor Odyssey machine which measures integrated intensity at 700 nm and 800 nm wavelengths. Both 700 and 800 channels were scanned.
First, the ratio for each well was determined by:
Each plate included fourteen control wells of DMSO only treatment (minimum inhibition) as well as fourteen control wells for maximum inhibition treated with 3 μM of a reference compound (Background wells). The average of the ratio values for each control type was calculated and used to determine the percent inhibition for each test well in the plate. Reference compound was serially diluted three-fold in DMSO for a total of nine test concentrations, beginning at 3 μM. Percent inhibition was determined and IC50 curves were generated using triplicate wells per concentration of compound. […]

Z-138 cells = test: Z-138 Proliferation Assay (Cell Titer Glo); format: cell-based; settings: Homo sapiens, 120 h, 5 days incubation
Source text: [formula] Z-138 Proliferation Assay
Z-138 suspension cells were purchased from ATCC (American Type Culture Collection, Manassas, Va.). RPMI/Glutamax medium, penicillin-streptomycin, heat inactivated fetal bovine serum were purchased from Life Technologies, Grand Island, N.Y., USA. V-bottom polypropylene 384-well plates were purchased from Greiner Bio-One, Monroe, N.C., USA. Cell culture 384-well white opaque plates were purchased from Perkin Elmer, Waltham, Mass., USA. Cell-Titer Glo® was purchased from Promega Corporation, Madison, Wis., USA. SpectraMax M5 plate reader was purchased from Molecular Devices LLC, Sunnyvale, Calif., USA.
Z-138 suspension cells were maintained in growth medium (RPMI 1640 supplemented with 10% v/v heat inactivated fetal bovine serum and cultured at 37° C. under 5% CO2. Under assay conditions, cells were incubated in assay medium (RPMI 1640 supplemented with 10% v/v heat inactivated fetal bovine serum and 100 units/mL penicillin-streptomycin) at 37° C. under 5% CO2.
For the assessment of the effect of compounds on the proliferation of the Z-138 cell line, exponentially growing cells were plated in 384-well white opaque plates at a density of 10,000 cells/ml in a final volume of 50 μl of assay medium. A compound source plate was prepared by performing triplicate nine-point 3-fold serial dilutions in DMSO, beginning at 10 mM (final top concentration of compound in the assay was 20 μM and the DMSO was 0.2%). A 100 nL aliquot from the compound stock plate was added to its respective well in the cell plate. […] After addition of compounds, assay plates were incubated for 5 days at 37° C., 5% CO2, relative humidity >90%.
Cell viability was measured by quantitation of ATP present in the cell cultures, adding 35 μl of Cell Titer Glo® reagent to the cell plates. Luminescence was read in the SpectraMax M5 microplate reader. The concentration of compound inhibiting cell viability by 50% was determined using a 4-parametric fit of the normalized dose response curves.

PRMT5/MEP50, sequence (O14744 other isoform, or with tags, fused parts or gaps): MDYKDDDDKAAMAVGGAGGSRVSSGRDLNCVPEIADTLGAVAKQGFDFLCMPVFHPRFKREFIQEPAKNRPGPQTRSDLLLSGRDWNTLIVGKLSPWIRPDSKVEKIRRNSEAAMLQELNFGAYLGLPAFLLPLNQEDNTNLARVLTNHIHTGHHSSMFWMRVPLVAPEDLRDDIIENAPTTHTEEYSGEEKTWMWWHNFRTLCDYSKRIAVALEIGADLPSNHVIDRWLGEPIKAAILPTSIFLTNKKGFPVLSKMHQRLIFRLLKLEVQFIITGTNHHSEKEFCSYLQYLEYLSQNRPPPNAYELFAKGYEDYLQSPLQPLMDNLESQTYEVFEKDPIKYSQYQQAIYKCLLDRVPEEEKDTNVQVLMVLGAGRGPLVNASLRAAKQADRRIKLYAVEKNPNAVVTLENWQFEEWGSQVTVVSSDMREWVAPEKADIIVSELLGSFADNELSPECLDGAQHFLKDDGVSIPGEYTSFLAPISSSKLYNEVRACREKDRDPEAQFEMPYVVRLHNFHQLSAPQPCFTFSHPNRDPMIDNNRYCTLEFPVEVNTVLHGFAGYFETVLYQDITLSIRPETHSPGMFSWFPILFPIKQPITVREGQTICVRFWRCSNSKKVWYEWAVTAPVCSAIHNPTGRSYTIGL
PRMT5/MEP50, sequence (Q9BQA1 other isoform, or with tags, fused parts or gaps partner): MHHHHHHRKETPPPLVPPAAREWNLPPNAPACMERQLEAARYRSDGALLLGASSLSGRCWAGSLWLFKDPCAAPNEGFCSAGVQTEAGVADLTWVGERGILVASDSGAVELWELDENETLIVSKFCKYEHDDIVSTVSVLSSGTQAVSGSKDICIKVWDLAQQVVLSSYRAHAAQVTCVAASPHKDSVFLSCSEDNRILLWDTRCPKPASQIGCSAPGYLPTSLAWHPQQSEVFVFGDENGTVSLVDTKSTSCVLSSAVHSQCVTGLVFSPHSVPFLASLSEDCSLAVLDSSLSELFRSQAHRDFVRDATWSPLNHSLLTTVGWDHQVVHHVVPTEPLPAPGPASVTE

| Compound | IC50 (PRMT5/MEP50) [nM] | EC50 [1] [nM] | EC50 ([1]; Homo sapiens) [nM] | EC50 (Z-138 cells) [nM] |
| --- | --- | --- | --- | --- |
| 2-(2-(1H-pyrazol-3-yl)phenoxy)-N-(2-hydroxy-3-(isoindolin-2-yl)propyl)acetamide [compound 8] | 101 to 1000 | 101 to 1000 | – | – |
| O=C(COc1cccc2cccnc12)NC[C@H](O)CN1Cc2ccccc2C1 [compound 4] | – | – | 101 to 1000 | 1000 to 10000 |
| Cn1cnc2ccc(-c3cccc(OCC(O)CN4Cc5ccccc5C4)c3)cc21 (centres unmarked) [compound 9, 1-(isoindolin-2-yl)-3-(3-(1-methyl-1H-benzo[d]imidazol-6-yl)phenoxy)propan-2-ol] | 1000 to 10000 | – | – | – |
| CC(C)(C)OC(=O)Nc1cccc(C(=O)NCC(O)CN2Cc3ccccc3C2)c1 (centres unmarked) [compound 11, tert-butyl (3-((2-hydroxy-3-(isoindolin-2-yl)propyl)carbamoyl)phenyl)carbamate] | 101 to 1000 | – | 1000 to 10000 | – |
| CS(=O)(=O)c1ccccc1OCC(=O)NCC(O)CN1Cc2ccccc2C1 (centres unmarked) [compound 12, N-(2-hydroxy-3-(isoindolin-2-yl)propyl)-2-(2-(methylsulfonyl)phenoxy)acetamide] | 101 to 1000 | – | 101 to 1000 | – |
| O=C(COc1cccc2cccnc12)NC[C@@H](O)CN1Cc2ccccc2C1 [compound 16, (R)—N-(2-hydroxy-3-(isoindolin-2-yl)propyl)-2-(quinolin-8-yloxy)acetamide] | 1000 to 10000 | – | – | – |
| COc1ccc(Cn2cnc3ccc(-c4ccc(OCC(O)CN5Cc6ccccc6C5)cc4)cc32)cc1 (centres unmarked) [compound 18] | 1000 to 10000 | – | – | – |
| OC(COc1cccc(CNC2CCCC2)c1)CN1Cc2ccccc2C1 (centres unmarked) [compound 20, 1-(3-((cyclopentylamino)methyl)phenoxy)-3-(isoindolin-2-yl)propan-2-ol] | 1000 to 10000 | – | – | 10000 to 50000 |
| CN(C)S(=O)(=O)c1ccccc1OCC(=O)NC[C@@H](O)CN1Cc2ccccc2C1 [compound 21] | – | – | 101 to 1000 | > 20000 |
| CN1CCOc2cccc(OCC(=O)NC[C@@H](O)CN3Cc4ccccc4C3)c21 [compound 22] | – | – | 1000 to 10000 | – |
| CN(C)S(=O)(=O)c1ccccc1OCC(=O)NC[C@H](O)CN1Cc2ccccc2C1 [compound 23] | – | – | < 100 | 101 to 1000 |
| O=C(NC[C@@H](O)CN1Cc2ccccc2C1)c1cccc(NC2CCOCC2)c1 [compound 24] | < 100 | – | – | – |
| CN1CCOc2cccc(OCC(=O)NC[C@H](O)CN3Cc4ccccc4C3)c21 [compound 26] | – | – | 101 to 1000 | > 20000 |
| O=C(NC[C@H](O)CN1Cc2ccccc2C1)c1cncc(OC2CCOCC2)c1 [compound 31] | – | – | 1000 to 10000 | – |
| CC(=O)N1CCC(Nc2cc(C(=O)NC[C@H](O)CN3Cc4ccccc4C3)ncn2)CC1 [compound 39] | < 100 | – | – | 101 to 1000 |
| CC(=O)N1CC(Nc2cc(C(=O)NC[C@H](O)CN3CCc4ccccc43)ncn2)C1 [compound 41] | 1000 to 10000 | – | – | 10000 to 50000 |
| CC(=O)N1CCC(Nc2cc(C(=O)NC[C@H](O)CN3CCCCc4ccccc43)ccn2)CC1 [compound 51] | > 10000 | – | – | – |
| O=C(NCCCN1Cc2ccccc2C1)c1cc(NC2COC2)ncn1 [compound 52] | > 10000 | – | – | – |
| CC(=O)N1CCC(Nc2cc(C(=O)NC[C@H](O)CN3CCCc4ccccc4C3)ccn2)CC1 [compound 53] | 1000 to 10000 | – | > 1000 | – |
| N-(2-hydroxy-3-(isoindolin-2-yl)propyl)-3-((tetrahydro-2H-pyran-4-yl)amino)benzamide [compound 6] | > 10000 | – | – | – |
| tert-butyl (3-((2-hydroxy-3-(isoindolin-2-yl)propyl)carbamoyl)phenyl)carbamate [compound 2] | 1000 to 10000 | – | – | – |
